Assay results: ChEMBL document CHEMBL2321869, “Ion channels as therapeutic targets: a drug discovery perspective” (J Med Chem, 2013)

Legend:
[1] = target: Sodium channel protein type 10 subunit alpha (Rattus norvegicus, UniProt Q62968); assay: Binding affinity to voltage-gated Na channel 1.8 in Sprague-Dawley rat L4/L5 DRG neurons by patch-clamp technique
[2] = target: T1, Sodium channel protein type 9 subunit alpha (Homo sapiens, UniProt Q15858); assay: Binding affinity to human inactivated voltage-gated Na channel 1.7 expressed in HEK293 cells by patch-clamp technique; format: cell-based
T1 sequence (Q15858 whole entry): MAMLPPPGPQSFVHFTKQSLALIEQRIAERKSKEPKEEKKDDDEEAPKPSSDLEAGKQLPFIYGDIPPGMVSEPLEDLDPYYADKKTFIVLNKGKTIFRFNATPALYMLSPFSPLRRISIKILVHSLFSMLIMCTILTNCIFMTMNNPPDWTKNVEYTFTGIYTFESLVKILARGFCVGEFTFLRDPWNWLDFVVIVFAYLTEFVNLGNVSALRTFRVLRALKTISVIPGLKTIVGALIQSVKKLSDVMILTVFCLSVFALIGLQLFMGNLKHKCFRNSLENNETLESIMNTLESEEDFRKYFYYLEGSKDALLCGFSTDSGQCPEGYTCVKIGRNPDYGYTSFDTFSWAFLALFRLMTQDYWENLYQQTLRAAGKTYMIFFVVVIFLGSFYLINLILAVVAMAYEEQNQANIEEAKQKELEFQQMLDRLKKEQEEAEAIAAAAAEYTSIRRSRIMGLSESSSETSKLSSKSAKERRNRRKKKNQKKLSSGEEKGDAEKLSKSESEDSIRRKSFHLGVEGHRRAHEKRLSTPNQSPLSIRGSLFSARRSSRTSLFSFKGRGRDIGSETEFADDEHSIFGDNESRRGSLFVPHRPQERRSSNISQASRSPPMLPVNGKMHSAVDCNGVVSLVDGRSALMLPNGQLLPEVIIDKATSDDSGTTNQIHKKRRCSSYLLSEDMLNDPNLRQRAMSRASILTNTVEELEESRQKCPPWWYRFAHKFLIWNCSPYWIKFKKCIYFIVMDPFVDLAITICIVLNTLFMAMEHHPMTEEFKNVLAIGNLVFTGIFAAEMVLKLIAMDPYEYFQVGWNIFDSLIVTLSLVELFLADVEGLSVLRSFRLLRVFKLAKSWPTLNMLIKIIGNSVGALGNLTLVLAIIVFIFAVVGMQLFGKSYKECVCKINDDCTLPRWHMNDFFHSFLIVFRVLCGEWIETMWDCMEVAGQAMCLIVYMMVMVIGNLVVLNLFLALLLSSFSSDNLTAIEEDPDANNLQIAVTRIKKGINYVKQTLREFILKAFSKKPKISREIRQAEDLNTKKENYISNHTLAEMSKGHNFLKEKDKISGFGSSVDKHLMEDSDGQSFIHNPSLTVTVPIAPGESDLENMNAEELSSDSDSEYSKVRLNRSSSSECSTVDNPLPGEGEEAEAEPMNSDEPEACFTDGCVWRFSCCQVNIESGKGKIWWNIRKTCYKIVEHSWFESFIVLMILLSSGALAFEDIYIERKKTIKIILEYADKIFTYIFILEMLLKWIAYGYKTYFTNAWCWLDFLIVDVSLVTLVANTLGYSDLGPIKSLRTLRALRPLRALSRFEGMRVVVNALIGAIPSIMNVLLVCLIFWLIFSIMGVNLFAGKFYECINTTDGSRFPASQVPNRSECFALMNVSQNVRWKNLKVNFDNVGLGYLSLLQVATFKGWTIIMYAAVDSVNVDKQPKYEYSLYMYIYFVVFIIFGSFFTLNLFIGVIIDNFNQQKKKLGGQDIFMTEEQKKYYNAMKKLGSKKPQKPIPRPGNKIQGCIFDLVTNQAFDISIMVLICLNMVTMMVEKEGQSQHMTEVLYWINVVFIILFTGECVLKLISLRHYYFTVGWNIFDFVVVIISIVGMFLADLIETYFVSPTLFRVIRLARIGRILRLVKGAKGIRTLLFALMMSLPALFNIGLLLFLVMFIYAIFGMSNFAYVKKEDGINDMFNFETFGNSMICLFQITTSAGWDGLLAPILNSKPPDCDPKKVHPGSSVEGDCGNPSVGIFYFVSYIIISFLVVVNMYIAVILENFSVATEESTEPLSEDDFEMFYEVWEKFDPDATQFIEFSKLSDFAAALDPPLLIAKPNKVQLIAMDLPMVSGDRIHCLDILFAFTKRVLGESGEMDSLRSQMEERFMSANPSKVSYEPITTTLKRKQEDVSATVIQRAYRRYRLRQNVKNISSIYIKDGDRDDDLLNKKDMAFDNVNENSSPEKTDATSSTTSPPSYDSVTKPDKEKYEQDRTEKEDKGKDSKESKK

[3] = target: T2, Sodium channel protein type 3 subunit alpha (Rattus norvegicus, UniProt P08104); assay: Binding affinity to rat inactivated voltage-gated Na channel 1.3 expressed in human HEK293 cells by patch-clamp technique; format: cell-based
[4] = target: Potassium voltage-gated channel subfamily KQT member 1 (Homo sapiens, UniProt P51787); assay: Inhibition of voltage-gated K channel 7.1 (unknown origin)
Chain of Potassium voltage-gated channel subfamily KQT member 1 (P51787 whole entry): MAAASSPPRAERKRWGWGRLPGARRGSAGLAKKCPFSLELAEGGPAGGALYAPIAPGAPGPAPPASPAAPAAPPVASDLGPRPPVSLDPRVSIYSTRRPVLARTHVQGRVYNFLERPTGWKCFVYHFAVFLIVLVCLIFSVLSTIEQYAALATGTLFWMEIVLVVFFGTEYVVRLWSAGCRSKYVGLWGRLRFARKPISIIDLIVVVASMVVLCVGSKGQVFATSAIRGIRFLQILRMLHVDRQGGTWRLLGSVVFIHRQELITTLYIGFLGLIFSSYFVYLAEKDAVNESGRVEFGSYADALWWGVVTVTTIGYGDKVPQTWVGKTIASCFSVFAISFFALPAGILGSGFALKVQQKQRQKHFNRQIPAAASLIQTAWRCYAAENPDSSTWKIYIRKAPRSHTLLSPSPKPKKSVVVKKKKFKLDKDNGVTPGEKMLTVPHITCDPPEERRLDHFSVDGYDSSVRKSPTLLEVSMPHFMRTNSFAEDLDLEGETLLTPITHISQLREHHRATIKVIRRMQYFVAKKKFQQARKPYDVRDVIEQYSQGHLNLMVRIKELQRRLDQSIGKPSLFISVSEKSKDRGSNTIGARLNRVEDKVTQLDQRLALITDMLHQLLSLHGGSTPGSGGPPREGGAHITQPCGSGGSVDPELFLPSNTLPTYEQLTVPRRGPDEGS

[5] = target: Potassium voltage-gated channel subfamily A member 5 (Homo sapiens, UniProt P22460); assay: Inhibition of voltage-gated K channel 1.5 (unknown origin)
[6] = target: Voltage-gated inwardly rectifying potassium channel KCNH2 (Homo sapiens, UniProt Q12809); assay: Inhibition of human ERG channel
[7] = target: T1, Sodium channel protein type 9 subunit alpha; assay: Inhibition of voltage-gated Na channel 1.7 (unknown origin)
[8] = target: Sodium channel protein type 8 subunit alpha (Homo sapiens, UniProt Q9UQD0); assay: Inhibition of voltage-gated Na channel 1.6 (unknown origin)
[9] = target: Sodium channel protein type 4 subunit alpha (Homo sapiens, UniProt P35499); assay: Inhibition of voltage-gated Na channel 1.4 (unknown origin)
[10] = target: T3, Sodium channel protein type 2 subunit alpha (Homo sapiens, UniProt Q99250); assay: Inhibition of voltage-gated Na channel 1.2 (unknown origin)
T3 sequence (Q99250 whole entry): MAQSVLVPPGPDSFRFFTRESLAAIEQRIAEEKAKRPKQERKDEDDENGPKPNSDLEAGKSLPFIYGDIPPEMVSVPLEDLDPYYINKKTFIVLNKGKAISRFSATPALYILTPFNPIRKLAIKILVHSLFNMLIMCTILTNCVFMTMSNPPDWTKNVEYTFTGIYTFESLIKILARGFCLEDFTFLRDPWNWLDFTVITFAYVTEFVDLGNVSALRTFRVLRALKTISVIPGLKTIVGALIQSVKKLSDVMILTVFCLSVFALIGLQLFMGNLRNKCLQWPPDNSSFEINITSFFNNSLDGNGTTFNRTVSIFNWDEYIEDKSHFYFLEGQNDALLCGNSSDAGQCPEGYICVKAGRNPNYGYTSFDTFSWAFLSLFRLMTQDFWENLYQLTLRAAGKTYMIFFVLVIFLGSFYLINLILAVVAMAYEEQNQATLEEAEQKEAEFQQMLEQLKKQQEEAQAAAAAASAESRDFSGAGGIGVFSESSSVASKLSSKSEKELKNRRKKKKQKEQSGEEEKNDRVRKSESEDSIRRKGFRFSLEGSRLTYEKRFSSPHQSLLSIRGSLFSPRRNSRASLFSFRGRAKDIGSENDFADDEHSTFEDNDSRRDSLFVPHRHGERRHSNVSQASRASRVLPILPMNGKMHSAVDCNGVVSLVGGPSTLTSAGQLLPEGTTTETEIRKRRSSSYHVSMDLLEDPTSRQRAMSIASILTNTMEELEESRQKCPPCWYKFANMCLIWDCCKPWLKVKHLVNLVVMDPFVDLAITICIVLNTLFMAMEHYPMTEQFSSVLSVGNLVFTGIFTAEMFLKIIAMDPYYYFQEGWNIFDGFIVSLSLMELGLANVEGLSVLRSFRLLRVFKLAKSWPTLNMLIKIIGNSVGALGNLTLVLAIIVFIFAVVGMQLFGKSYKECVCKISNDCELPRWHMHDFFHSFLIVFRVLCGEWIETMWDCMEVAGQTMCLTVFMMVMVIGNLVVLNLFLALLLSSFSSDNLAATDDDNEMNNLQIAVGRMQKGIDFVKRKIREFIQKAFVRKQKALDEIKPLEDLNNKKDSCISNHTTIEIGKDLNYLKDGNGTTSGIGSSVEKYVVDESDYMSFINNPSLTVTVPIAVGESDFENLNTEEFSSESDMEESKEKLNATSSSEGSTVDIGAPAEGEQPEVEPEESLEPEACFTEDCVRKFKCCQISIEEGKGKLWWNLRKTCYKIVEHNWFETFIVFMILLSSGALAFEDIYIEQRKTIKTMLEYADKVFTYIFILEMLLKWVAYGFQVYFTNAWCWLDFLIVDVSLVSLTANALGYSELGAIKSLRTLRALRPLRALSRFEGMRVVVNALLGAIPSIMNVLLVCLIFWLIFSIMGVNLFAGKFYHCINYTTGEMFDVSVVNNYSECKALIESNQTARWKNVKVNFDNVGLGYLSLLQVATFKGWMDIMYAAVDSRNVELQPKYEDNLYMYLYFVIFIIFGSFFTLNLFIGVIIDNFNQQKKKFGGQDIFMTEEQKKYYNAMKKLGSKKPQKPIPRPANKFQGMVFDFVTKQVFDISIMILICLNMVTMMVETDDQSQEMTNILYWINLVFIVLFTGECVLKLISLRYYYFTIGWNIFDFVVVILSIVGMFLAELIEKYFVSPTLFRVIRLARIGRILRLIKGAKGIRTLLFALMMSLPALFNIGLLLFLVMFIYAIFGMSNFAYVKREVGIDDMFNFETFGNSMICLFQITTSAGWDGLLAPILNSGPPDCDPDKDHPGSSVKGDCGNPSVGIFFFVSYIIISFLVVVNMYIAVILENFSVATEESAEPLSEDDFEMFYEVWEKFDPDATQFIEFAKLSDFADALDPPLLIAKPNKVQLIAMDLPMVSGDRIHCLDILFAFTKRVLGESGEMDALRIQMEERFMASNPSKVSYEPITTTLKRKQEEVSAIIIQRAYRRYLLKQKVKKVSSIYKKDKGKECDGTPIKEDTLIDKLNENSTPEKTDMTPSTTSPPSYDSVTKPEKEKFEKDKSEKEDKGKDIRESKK

[11] = target: Sodium channel protein type 3 subunit alpha (Homo sapiens, UniProt Q9NY46); assay: Inhibition of voltage-gated Na channel 1.3 (unknown origin)
[12] = target: Sodium channel protein type 1 subunit alpha (Homo sapiens, UniProt P35498); assay: Inhibition of voltage-gated Na channel 1.1 (unknown origin)
Glutamate receptor 1 = Glutamate receptor 1 (Homo sapiens, UniProt P42261); assay: Agonist activity at GluA1 (unknown origin)
[13] = target: GABA-A receptor; alpha-3/beta-3/gamma-2 (Homo sapiens, UniProt P18507+P28472+P34903); assay: Modulation of human GABAA alpha3beta3gamma2 expressed in xenopus oocytes assessed as potentiation of GABA-evoked chloride currents; format: cell-based, Oocyte
[14] = target: GABA-A receptor; alpha-2/beta-3/gamma-2 (Homo sapiens, UniProt P18507+P28472+P47869); assay: Modulation of human GABAA alpha2beta3gamma2 expressed in xenopus oocytes assessed as potentiation of GABA-evoked chloride currents; format: cell-based, Oocyte
[15] = target: GABA-A receptor; alpha-1/beta-2/gamma-2 (Homo sapiens, UniProt P14867+P18507+P47870); assay: Modulation of human GABA-A alpha1beta2gamma2 expressed in xenopus oocytes assessed as potentiation of GABA-evoked chloride currents; format: cell-based, Oocyte
[16] = target: Gamma-aminobutyric acid receptor subunit alpha-5/beta-3/gamma-3 (Homo sapiens, UniProt P28472+P31644+Q99928); assay: Modulation of human GABAA alpha5beta3gamma3 expressed in xenopus oocytes assessed as potentiation of GABA-evoked chloride currents; format: cell-based, Oocyte
[17] = target: T3, Sodium channel protein type 2 subunit alpha; assay: Inhibition of human voltage-gated Na channel 1.2 by cell based patch clamp technique
[18] = target: T1, Sodium channel protein type 9 subunit alpha; assay: Inhibition of human voltage-gated Na channel 1.7 by cell based patch clamp technique
[19] = target: Sodium channel protein type 5 subunit alpha (Homo sapiens, UniProt Q14524); assay: Inhibition of human voltage-gated Na channel 1.5 by cell based patch clamp technique
[20] = target: T2, Sodium channel protein type 3 subunit alpha; assay: Inhibition of rat voltage-gated Na channel 1.3 in dorsal root ganglion neurons by patch clamp technique; format: tissue-based
[21] = target: Sodium channel protein type 1 subunit alpha (Rattus norvegicus, UniProt P04774); assay: Inhibition of rat voltage-gated Na channel 1.1 in dorsal root ganglion neurons by patch clamp technique; format: tissue-based

In the case of COC[C@@H](NC(C)=O)C(=O)NCc1ccccc1 [LACOSAMIDE], the IC50 [1] is reported as 16000 nM, the IC50 [2] is reported as 182 nM and the IC50 [3] is reported as 415 nM.
In the case of NC(=O)C(c1ccccc1)(c1ccc(F)cc1)c1ccc(F)cc1 [SENICAPOC], the IC50 [4] is reported as over 1000 nM, the IC50 [5] is reported as over 1000 nM and the IC50 [6] is reported as over 1000 nM. The IC50 [7] was over 1000 nM, the IC50 [8] was over 1000 nM and the IC50 [9] was over 1000 nM. It also gave an IC50 [10] of over 1000 nM, an IC50 [11] of over 1000 nM and an IC50 [12] of over 1000 nM.
N[C@@H](C[C@@H](C/C=C/c1ccc2ccccc2c1)C(=O)O)C(=O)O was tested, and the EC50 (Glutamate receptor 1) was over 300000 nM.
Compound CCN(C(C)=O)c1cccc(-c2ccnc3c(C#N)cnn23)c1 [ZALEPLON] has an EC50 [13] of over 1000 nM, an EC50 [14] of 1630 nM and an EC50 [15] of 290 nM. It also gave an EC50 [16] of over 1000 nM.
In the case of COc1cnc(-c2cccc3c2C[C@H](NC(=O)c2ccc(COCC(F)(F)F)nc2)CO3)cn1, the IC50 [17] is reported as over 33000 nM, the IC50 [18] is reported as 66 nM and the IC50 [19] is reported as 13000 nM.
O=C1[C@@H](N2CC[C@H](c3cc(Cl)cc(Cl)c3)C2)CCN1c1ccc(S(=O)(=O)Nc2nccs2)cc1 showed an IC50 [20] of under 2000 nM and an IC50 [21] of under 2000 nM.
